According to patent US5082845A, “Therapeutic xanthine derivatives for the treatment of peptic ulcer disease” (Hoechst Japan Limited, priority 1988, dated 1992):

How the values were obtained:
in vivo = settings: mouse, in vivo, mice
Protocol: (§1) LD50 values of the compounds of this invention were determined after intravenous injection or intraperitoneal administration to mice for acute toxicity test. The studies were carried out using male and female NMRI mice (n=3/group) having a body weight between 19-21 g.

[1] = test system: stress-induced gastric ulcer in rats; experiment: Protective effect on gastric ulcer induced by restraint plus water-immersion stress in rats; format: in vivo, male Sprague-Dawley rats; settings: 10 mg/kg po; for Ulcer index: mean ± S.E.; for inhibition in vivo at 10 mg/kg: Rattus norvegicus, stress-induced ulcer
Protocol: 1.1 Protective Effect on Gastric Ulcer Induced by Restraint Plus Water-Immersion Stress in Rats
Male Sprague-Dawley rats weighing 250-300 g were used in groups of 5-34. The animals were given the compounds by the oral route after fasting overnight. Immediately, under light ether anesthesia they were placed in a restraint box and immersed in water at 20° C. for 6 or 7 hours. Then the animals were sacrificed, and their stomachs were isolated, inflated with 4 ml of 1% formalin for 10 minutes, opened along the greater curvature, and examined for the presence of gastric erosions. The longest axis of each erosion induced on the glandular section of the stomach was measured, and the sum of the lengths was defined as an ulcer index.

[2] = test system: ethanol-induced gastric ulcer in rats; experiment: Protective effect on ethanol-induced gastric ulcer in rats; format: in vivo, male Sprague-Dawley rats; settings: 10 mg/kg po; for Ulcer index: mean ± S.E.; for inhibition in vivo at 10 mg/kg: Rattus norvegicus
Protocol: 1.2 Protective Effect on Ethanol-Induced Gastric Ulcer in Rats
Male Sprague-Dawley rats weighing 250-300 g were used in groups of 5-24. After fasting overnight, the animals were given orally the compounds. Thirty minutes later they received absolute ethanol (1 ml/body) orally and were sacrificed after 60 minutes. The stomach was removed and examined for erosions. The ulcer index was obtained in the same way as under 1.1.

mice = experiment: in vivo; settings: acute
Protocol: as §1

peptic ulcer disease = settings: Ter. Arkh. 57, 52-55, 1985; cited from earlier work
[3] = series with control (distilled water) 19.7 ± 2.9 mm
[4] = series with control 19.7 ± 2.9 mm
[5] = ip, intraperitoneal administration, 7 days (footnote b)
[6] = series with control (distilled water) 26.2 ± 1.6 mm
[7] = series with control 26.2 ± 1.6 mm
[8] = series with control (distilled water) 111.6 ± 10.4 mm
[9] = series with control 111.6 ± 10.4 mm
[10] = series with control (distilled water) 164.7 ± 19.4 mm
[11] = series with control 164.7 ± 19.4 mm
[12] = series with control (10% EtOH) 118.8 ± 9.6 mm

SMILES | LD50 at 168 h (in vivo; intravenous, n=3/group, 7 days) | Ulcer index [1, 3] | inhibition in vivo at 10 mg/kg [1, 4] | Ulcer index [1, 6] | inhibition in vivo at 10 mg/kg [1, 7] | other results
CC(=O)Cn1cnc2c1c(=O)n(CCCCC(C)O)c(=O)n2C (stereo not shown) [Compound 23, 1-(5-Hydroxyhexyl)-3-methyl-7-(2-oxopropyl)-xanthine] | > 200 mg/kg | 15.8 ± 4.6 mm | 19.8% |  |  | 
CCn1c(=O)c2c(ncn2CCCCC(C)=O)n(C)c1=O [Compound 22] |  | 8.0 ± 4.2 mm | 59% |  |  | LD50 at 168 h (in vivo; [5]): 200 to 400 mg/kg
CC(=O)Cn1c(=O)c2c(ncn2CCCCC(C)O)n(C)c1=O (stereo not shown) [Compound 19, 7-(5-Hydroxyhexyl)-3-methyl-1-(2-oxopropyl)-xanthine] | > 200 mg/kg |  |  | 15.0 ± 2.4 mm | 42.8% | 
CC(=O)CCCCn1c(=O)c2c(ncn2CCCCC(O)CO)n(C)c1=O (stereo not shown) [Compound 11, 7-(5,6-dihydroxyhexyl)-3-methyl-1-(5-oxohexyl)-xanthine] | > 200 mg/kg |  |  | 13.8 ± 1.7 mm | 47.4% | 
C=CCn1c(=O)c2c(ncn2CCCCC(O)CO)n(CC)c1=O (stereo not shown) [Compound 6, 1-Allyl-3-ethyl-7-(5,6-dihydroxyhexyl)-xanthine] | > 200 mg/kg |  |  | 7.0 ± 0.9 mm | 73.2% | Ulcer index [2, 8]: 10.7 ± 1.4 mm; inhibition in vivo at 10 mg/kg [2, 9]: 90.4%
CCCn1c(=O)c2c(ncn2CCCCC(O)CO)n(CC)c1=O (stereo not shown) [Compound 1] |  | 2.7 ± 0.9 mm | 86.3% |  |  | Ulcer index [2, 10]: 6.7 ± 2.1 mm; inhibition in vivo at 10 mg/kg [2, 11]: 95.8%; toxicity (in words) (mice): low toxicity
CC(=O)CCCCn1c(=O)c2c(ncn2C)n(C)c1=O [Compound 25, 1,2,3,6-tetrahydro-3,7-dimethyl-1-(5-oxohexyl)-purine-2,6-dione, reference compound] |  |  | 12.7% |  |  | antiulcer effects (in words) (peptic ulcer disease): antiulcer effects; inhibition in vivo at 10 mg/kg [2, 11]: 78.8%
CCn1c(=O)n(C(C)C)c(=O)c2c1ncn2CCCCC(O)CO (stereo not shown) [Compound 2] |  |  |  | 11.5 ± 2.1 mm | 56% | Ulcer index [2, 8]: 6.7 ± 2.8 mm; inhibition in vivo at 10 mg/kg [2, 9]: 94%
CCCn1c(=O)n(CCCCC(C)=O)c(=O)c2c1ncn2CCCCC(O)CO (stereo not shown) [Compound 9, 7-(5,6-Dihydroxyhexyl)-1-(5-oxohexyl)-3-n-propylxanthine] | > 200 mg/kg |  |  | 20.2 ± 5.8 mm | 22.9% | 
CCCCCCn1c(=O)c2c(ncn2CCCCC(C)O)n(C)c1=O (stereo not shown) [Compound 17] |  |  |  |  |  | Ulcer index [2, 12]: 13.4 ± 5.2 mm; inhibition in vivo at 10 mg/kg [2, 12]: 88.7%; LD50 at 168 h (in vivo; [5]): 500 to 1000 mg/kg
CCCn1c(=O)c2c(ncn2CCCCC(C)O)n(C)c1=O (stereo not shown) [Compound 15] |  | 2.2 ± 0.9 mm | 88.9% |  |  | LD50 at 168 h (in vivo; intravenous, method of LitchfieldWilcoxon using 10 mice/dose (footnote a)): 123 mg/kg
CC(=O)CCCCn1cnc2c1c(=O)n(CC(C)=O)c(=O)n2C [Compound 24, 3-Methyl-7-(5-oxohexyl)-1-(2-oxopropyl)-xanthine] | > 200 mg/kg | 10.3 ± 3.5 mm | 47.7% |  |  | 
CCCCn1c(=O)c2c(ncn2CCCCC(C)O)n(C)c1=O (stereo not shown) [Compound 16] | 100 to 200 mg/kg |  |  | 10.6 ± 0.9 mm | 59.4% | Ulcer index [2, 8]: 4.1 ± 0.8 mm; inhibition in vivo at 10 mg/kg [2, 9]: 96.3%
CCCCn1c(=O)c2c(ncn2CCCCC(O)CO)n(C)c1=O (stereo not shown) [Compound 10] |  |  |  | 4.5 ± 1.4 mm | 82.8% | Ulcer index [2, 8]: 1.1 ± 0.5 mm; inhibition in vivo at 10 mg/kg [2, 9]: 99%
CCCn1cnc2c1c(=O)n(CCCCC(O)CO)c(=O)n2CC (stereo not shown) [Compound 14] |  |  |  | 10.4 ± 1.9 mm | 60.2% | LD50 at 168 h (in vivo; [5]): 300 to 600 mg/kg
C=CCn1cnc2c1c(=O)n(CCCCC(C)O)c(=O)n2C (stereo not shown) [Compound 21, 7-allyl-1-(5-hydroxyhexyl)-3-methylxanthine] | 100 to 200 mg/kg |  |  | 13.4 ± 3.2 mm | 48.9% | 
CC(=O)CCCCn1c(=O)c2c(ncn2CC(C)O)n(C)c1=O (stereo not shown) [Compound 20] | > 200 mg/kg | 6.9 ± 2.1 mm | 65% |  |  | 
C=CCn1c(=O)c2c(ncn2CCCCC(C)O)n(C)c1=O (stereo not shown) [Compound 18, 1-Allyl-7-(5-hydroxyhexyl)-3-methylxanthine] |  | 15.3 ± 2.1 mm | 22.3% |  |  | LD50 at 168 h (in vivo; [5]): 250 to 500 mg/kg
CCn1c(=O)n(CC(C)C)c(=O)c2c1ncn2CCCCC(O)CO (stereo not shown) [Compound 5] | > 200 mg/kg |  |  | 7.1 ± 1.8 mm | 72.9% | 
CCCCCn1c(=O)c2c(ncn2CCCCC(O)CO)n(CC)c1=O (stereo not shown) [Compound 4] | > 200 mg/kg |  |  | 9.2 ± 1.9 mm | 64.7% | Ulcer index [2, 8]: 15.6 ± 5.8 mm; inhibition in vivo at 10 mg/kg [2, 9]: 86%
CCn1c(=O)n(CC(C)O)c(=O)c2c1ncn2CCCCC(O)CO (stereo not shown) [Compound 8, 3-Ethyl-7-(5,6-dihydroxyhexyl)-1-(2-hydroxypropyl)-xanthine] | > 200 mg/kg |  |  | 20.7 ± 4.6 mm | 21% | 
CCCn1c(=O)c2c(ncn2CCCCCC(O)CO)n(CC)c1=O (stereo not shown) [Compound 13] | 200 to 400 mg/kg |  |  | 8.9 ± 2.1 mm | 66% | Ulcer index [2, 8]: 5.0 ± 2.2 mm; inhibition in vivo at 10 mg/kg [2, 9]: 95.5%
CCn1c(=O)n(CC(C)=O)c(=O)c2c1ncn2CCCCC(O)CO (stereo not shown) [Compound 7, 3-Ethyl-7-(5,6-dihydroxyhexyl)-1-(2-oxopropyl)-xanthine] | > 200 mg/kg |  |  | 20.4 ± 4.1 mm | 21.9% | 
CCCCn1c(=O)c2c(ncn2CCCCC(O)CO)n(CC)c1=O (stereo not shown) [Compound 3] |  | 6.0 ± 1.9 mm | 69.6% |  |  | Ulcer index [2, 10]: 5.3 ± 3.3 mm; inhibition in vivo at 10 mg/kg [2, 11]: 96.8%
CCCn1c(=O)c2c(ncn2CCCC(O)C(C)O)n(CC)c1=O (stereo not shown) [Compound 12] | > 200 mg/kg |  |  | 4.3 ± 0.8 mm | 83.5% | 
